Data from the NIST ThermoML archive (doi:10.1016/j.fluid.2016.02.031).
Numbers after ± are expanded uncertainties.

Test: xn = mol fraction of the nth substance listed
Settings: 100 kPa, Liquid; for viscosity: Concentric cylinders viscometry; for mass density: Vibrating tube method

OCCCO [propan-1,3-diol] + CCC(C)=O
Settings	mass density, 288.15 K [kg/m3]	mass density, 293.15 K [kg/m3]	mass density, 298.15 K [kg/m3]	mass density, 303.15 K [kg/m3]	mass density, 308.15 K [kg/m3]	viscosity, 288.15 K [mPa·s]	viscosity, 293.15 K [mPa·s]	viscosity, 298.15 K [mPa·s]	viscosity, 303.15 K [mPa·s]	viscosity, 308.15 K [mPa·s]
x1 = 0.1052	834.263 ± 0.2	829.229 ± 0.21	824.172 ± 0.21	819.09 ± 0.21	813.976 ± 0.21	0.5783 ± 0.0079	0.5513 ± 0.0076	0.5185 ± 0.0073	0.4891 ± 0.007	0.4633 ± 0.0068
x1 = 0.2004	855.981 ± 0.2	851.106 ± 0.2	846.22 ± 0.2	841.328 ± 0.2	836.391 ± 0.2	0.8238 ± 0.01	0.7652 ± 0.0097	0.714 ± 0.0092	0.6674 ± 0.0088	0.6247 ± 0.0083
x1 = 0.3002	879.545 ± 0.2	874.858 ± 0.2	870.166 ± 0.2	865.461 ± 0.2	860.732 ± 0.2	1.258 ± 0.015	1.144 ± 0.014	1.046 ± 0.013	0.9604 ± 0.012	0.8841 ± 0.011
x1 = 0.4003	904.311 ± 0.2	899.864 ± 0.2	895.391 ± 0.2	890.9 ± 0.2	886.382 ± 0.2	2.132 ± 0.024	1.889 ± 0.022	1.688 ± 0.019	1.517 ± 0.018	1.379 ± 0.016
x1 = 0.4999	929.443 ± 0.19	925.2 ± 0.19	920.936 ± 0.19	916.653 ± 0.19	912.346 ± 0.2	3.633 ± 0.04	3.143 ± 0.035	2.744 ± 0.031	2.414 ± 0.027	2.141 ± 0.024
x1 = 0.5992	954.483 ± 0.19	950.438 ± 0.19	946.376 ± 0.19	942.296 ± 0.19	938.196 ± 0.19	6.313 ± 0.069	5.35 ± 0.059	4.578 ± 0.05	3.957 ± 0.044	3.447 ± 0.038
x1 = 0.6992	979.932 ± 0.18	976.1 ± 0.19	972.256 ± 0.19	968.392 ± 0.19	964.512 ± 0.19	11.18 ± 0.12	9.291 ± 0.1	7.804 ± 0.085	6.624 ± 0.072	5.663 ± 0.062
x1 = 0.7989	1003.76 ± 0.18	1000.12 ± 0.18	996.448 ± 0.18	992.685 ± 0.18	989.056 ± 0.18	20.31 ± 0.22	16.48 ± 0.18	13.57 ± 0.15	11.3 ± 0.12	9.517 ± 0.1
x1 = 0.8998	1028.39 ± 0.19	1024.96 ± 0.19	1021.51 ± 0.19	1018 ± 0.19	1014.59 ± 0.19	37.46 ± 0.41	29.8 ± 0.32	24.01 ± 0.26	19.67 ± 0.21	16.21 ± 0.18
x1 = 1	1055.96 ± 0.19	1052.87 ± 0.19	1049.76 ± 0.19	1046.64 ± 0.19	1043.5 ± 0.18	68.06 ± 0.75	52.75 ± 0.55	41.97 ± 0.45	33.56 ± 0.36	27.15 ± 0.29
